From article PMC7044277 (Nature Communications, 2020)
Where “and” joins values, the source holds several entries; their conditions need not be identical. Identical values can stand only once.

Key:
[1] = molecular target: DRD2 (D2 long receptor) wild-type (Homo sapiens, UniProt P14416); assay: Radioligand competition binding, [3H]-N-methylspiperone, HEK293T membranes; conditions: for Ki: DRD2, [3H]-methylspiperone (0.8-1.0 nM), read-out: Ki
DRD3 wild-type = DRD3 wild-type (Homo sapiens, UniProt P35462); assay: Radioligand competition binding, [3H]-N-methylspiperone; conditions: for Ki: DRD3, [3H]-methylspiperone (0.8-1.0 nM), read-out: Ki; for pKi ± SEM: DRD3 wild-type
[2] = molecular target: T1, DRD4 (D4.4 variant) wild-type (Homo sapiens, UniProt P21917); assay: as above; conditions: DRD4; [3H]-methylspiperone (0.8-1.0 nM); read-out: Ki
T1 sequence (P21917 1-419): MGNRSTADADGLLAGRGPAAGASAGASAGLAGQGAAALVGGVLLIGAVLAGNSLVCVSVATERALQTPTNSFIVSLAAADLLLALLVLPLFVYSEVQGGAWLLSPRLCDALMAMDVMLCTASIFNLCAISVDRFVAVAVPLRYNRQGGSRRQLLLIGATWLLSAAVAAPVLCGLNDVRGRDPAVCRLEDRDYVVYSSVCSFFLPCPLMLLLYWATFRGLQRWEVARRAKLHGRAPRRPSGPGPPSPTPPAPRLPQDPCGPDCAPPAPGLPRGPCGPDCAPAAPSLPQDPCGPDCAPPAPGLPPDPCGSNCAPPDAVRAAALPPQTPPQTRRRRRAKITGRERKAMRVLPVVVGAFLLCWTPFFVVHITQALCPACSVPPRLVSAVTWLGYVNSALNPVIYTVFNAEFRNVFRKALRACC

DRD3 F1063.28A [3] = molecular target: T2, DRD3 F1063.28A (Homo sapiens, UniProt P35462, F106A); assay: biochemical; format: binding; conditions: DRD3 F1063.28A; read-out: Ki
DRD2 (D2 long receptor) [4] = molecular target: T3, DRD2 (D2 long receptor) (Homo sapiens, UniProt P14416); assay: Gαi/o-mediated cAMP inhibition (GloSensor split-luciferase cAMP reporter), HEK293T; format: cell-based; conditions: for EC50: agonist, Gαi/o-mediated cAMP inhibition, read-out: EC50 ± SEM; for Response, Fig_S11b dose-response: individual replicates;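 as to all read-outs here: compounds applied 15 min at room temperature, then luciferin plus 400 nM isoproterenol to raise cAMP through endogenous β2-adrenergic receptors, luminescence read 15 min later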
DRD4 (D4.4 variant) [5] = molecular target: T4, DRD4 (D4.4 variant) (Homo sapiens, UniProt P21917); assay: Gαi/o-mediated cAMP inhibition (GloSensor); format: cell-based; conditions: DRD4; agonist, cAMP inhibition; read-out: EC50 ± SEM
T4 sequence (P21917 1-419): T1 sequence (P21917 1-419)

DRD2 (D2 long receptor) [6] = molecular target: T3, DRD2 (D2 long receptor); assay: β-arrestin2 recruitment (Tango), HTLA cells; format: cell-based; conditions: for EC50 / Emax relative to quinpirole response: DRD2; for EC50: β-arrestin2 recruitment (Tango), read-out: EC50 ± SEM; for Emax relative to quinpirole response: Tango; for Response, Fig_S11c dose-response: individual replicates
DRD3 = DRD3 (Homo sapiens, UniProt P35462); assay: β-arrestin2 recruitment (Tango); format: cell-based; conditions: DRD3; Tango; read-out: EC50 ± SEM
DRD4 (D4.4 variant) [7] = molecular target: T4, DRD4 (D4.4 variant); assay: β-arrestin2 recruitment (Tango); format: cell-based; conditions: DRD4; Tango; read-out: EC50 ± SEM
DRD2 F1103.28A [8] = molecular target: T5, DRD2 F1103.28A (Homo sapiens, UniProt P14416, F110A); format: binding; set-up: expressed in transfected cells; host or cells: HEK293T (ATCC CRL-11268); conditions: DRD2 F1103.28A; for Ki: read-out: Ki
DRD2 F1103.28L [9] = molecular target: T6, DRD2 F1103.28L (Homo sapiens, UniProt P14416, F110L); assay: Gαi/o-mediated cAMP inhibition (GloSensor), mutant; format: cell-based; conditions: DRD2 F1103.28L (b138 head prints DRD2 F1063.28L)
T6 construct: expressed in transfected cells; host or cells: HEK293T (ATCC CRL-11268)

DRD2 F1103.28L [10] = molecular target: T6, DRD2 F1103.28L; assay: β-arrestin2 recruitment (Tango), mutant; format: cell-based
DRD3 F1063.28A [11] = molecular target: T2, DRD3 F1063.28A; assay: cell-based; format: cell-based; conditions: DRD3 F1063.28A; Tango; read-out: EC50 ± SEM
DRD2 F1103.28A [12] = molecular target: T5, DRD2 F1103.28A; assay: Gαi/o-mediated cAMP inhibition (GloSensor), mutant; format: cell-based; set-up: expressed in transfected cells; host or cells: HEK293T (ATCC CRL-11268)
DRD2 F1103.28A [13] = molecular target: T5, DRD2 F1103.28A; assay: β-arrestin2 recruitment (Tango), mutant; format: cell-based; set-up: expressed in transfected cells; host or cells: HEK293T (ATCC CRL-11268)

DRD2 (D2 long receptor) wild-type, sequence (P14416 whole entry): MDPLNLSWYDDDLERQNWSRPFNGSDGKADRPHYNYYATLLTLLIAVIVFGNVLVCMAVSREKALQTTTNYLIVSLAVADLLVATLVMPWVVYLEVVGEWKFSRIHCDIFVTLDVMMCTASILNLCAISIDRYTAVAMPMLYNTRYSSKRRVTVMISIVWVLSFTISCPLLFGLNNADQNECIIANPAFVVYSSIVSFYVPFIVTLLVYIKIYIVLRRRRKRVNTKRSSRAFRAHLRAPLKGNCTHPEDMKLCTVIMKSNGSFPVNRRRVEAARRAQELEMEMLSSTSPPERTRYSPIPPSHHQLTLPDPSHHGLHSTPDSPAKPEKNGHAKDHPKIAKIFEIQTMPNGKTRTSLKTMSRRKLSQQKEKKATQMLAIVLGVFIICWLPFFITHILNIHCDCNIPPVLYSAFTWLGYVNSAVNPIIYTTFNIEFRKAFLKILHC
T3 sequence (P14416 whole entry): as above
T5 sequence (P14416 whole entry F110A): as the sequence (P14416 whole entry) above, with F110A counted along it
T2 sequence (P35462 whole entry F106A): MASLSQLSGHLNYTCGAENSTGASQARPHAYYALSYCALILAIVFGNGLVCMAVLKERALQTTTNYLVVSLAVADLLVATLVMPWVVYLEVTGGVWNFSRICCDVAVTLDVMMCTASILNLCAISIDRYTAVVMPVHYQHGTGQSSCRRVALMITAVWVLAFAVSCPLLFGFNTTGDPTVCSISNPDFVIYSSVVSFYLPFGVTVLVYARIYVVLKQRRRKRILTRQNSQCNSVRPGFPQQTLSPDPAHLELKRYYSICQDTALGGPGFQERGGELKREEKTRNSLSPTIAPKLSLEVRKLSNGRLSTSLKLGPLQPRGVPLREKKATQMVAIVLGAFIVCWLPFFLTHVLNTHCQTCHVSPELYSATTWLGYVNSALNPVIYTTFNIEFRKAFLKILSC
DRD3 wild-type, sequence (P35462 whole entry): as the sequence (P35462 whole entry F106A) above, with A106F counted along it
DRD3, sequence (P35462 whole entry): as the sequence (P35462 whole entry F106A) above, with A106F counted along it
T6 sequence (P14416 whole entry F110L): as the sequence (P14416 whole entry) above, with F110L counted along it

## CCOc1cccc2cc(C(C)NCC(C)(C)O)oc12 (racemic) [O4LE2]
[1]
  Ki: > 10 µM
DRD3 wild-type
  Ki: > 10 µM
[2]
  Ki: > 10 µM
DRD3 F1063.28A [3]
  Ki: > 10 µM
DRD2 (D2 long receptor) [4]; DRD2
  EC50: > 10 µM
DRD4 (D4.4 variant) [5]
  EC50: > 10 µM
DRD2 (D2 long receptor) [6]
  EC50: > 10 µM
DRD3
  EC50: > 10 µM
DRD4 (D4.4 variant) [7]
  EC50: > 10 µM
DRD2 F1103.28A [8]
  Ki: > 10 µM

## CCOc1cccc2cc(C(C)NCC3(O)CC3)oc12.Cl (racemic) [O4LE3]
[1]
  Ki: > 10 µM
DRD3 wild-type
  Ki: 4.37 µM
  pKi ± SEM: 5.36±0.31
[2]
  Ki: > 10 µM
DRD3 F1063.28A [3]
  Ki: > 10 µM
DRD2 (D2 long receptor) [4]; DRD2
  EC50: > 10 µM
DRD4 (D4.4 variant) [5]
  EC50: > 10 µM
DRD2 F1103.28L [9]
  EC50: > 10 µM
DRD2 (D2 long receptor) [6]
  Emax relative to quinpirole response: 9.29%
  EC50: 8.85 ± 2.62 µM
DRD3
  EC50: > 10 µM
DRD4 (D4.4 variant) [7]
  EC50: > 10 µM
DRD2 F1103.28L [10]
  EC50: > 10 µM
DRD3 F1063.28A [11]
  EC50: > 10 µM
DRD2 F1103.28A [8]
  Ki: > 10 µM
DRD2 F1103.28A [12]
  EC50: > 10 µM
DRD2 F1103.28A [13]
  EC50: > 10 µM

## CCOc1cccc2cc(C(C)NCCO)oc12 (stereo not shown) [O4LE1]
[1]
  Ki: > 10 µM
DRD3 wild-type
  Ki: > 10 µM
[2]
  Ki: > 10 µM
DRD3 F1063.28A [3]
  Ki: > 10 µM
DRD2 (D2 long receptor) [4]; DRD2
  EC50: > 10 µM
DRD4 (D4.4 variant) [5]
  EC50: > 10 µM
DRD2 (D2 long receptor) [6]
  EC50: > 10 µM
DRD3
  EC50: > 10 µM
DRD4 (D4.4 variant) [7]
  EC50: > 10 µM
DRD2 F1103.28A [8]
  Ki: > 10 µM

## CCCCOc1cccc2cc(C(C)NCC3(O)CCCCC3)oc12.Cl (stereo not shown) [O6LE6]
[1]
  Ki: 2.04 µM
[1]; DRD2 wild-type
  pKi ± SEM: 5.69±0.06
DRD3 wild-type
  Ki: 0.85 µM
  pKi ± SEM: 6.07±0.01
[2]
  Ki: > 10 µM
DRD2 (D2 long receptor) [4]; DRD2
  EC50: 0.0464 ± 0.0155 µM
DRD2 (D2 long receptor) [4]; DRD2, cAMP inhibition
  Emax relative to quinpirole response: 96.65%
DRD2 (D2 long receptor) [4]; Log[Drug] -5
  Response, Fig_S11b dose-response: 81.0159 and 81.9991 and 95.2013 and 90.5911 and 100.378 and 91.8314 and 90.3639 and 94.9855 and 86.3213
DRD2 (D2 long receptor) [4]; Log[Drug] -5.52
  Response, Fig_S11b dose-response: 88.5768 and 95.2247 and 77.4579 and 98.4012 and 97.1899 and 97.626 and 96.6191 and 98.263 and 92.5248
DRD2 (D2 long receptor) [4]; Log[Drug] -6
  Response, Fig_S11b dose-response: 91.3624 and 86.7743 and 72.7996 and 95.3198 and 99.2054 and 99.6124 and 91.2428 and 94.603 and 88.8234
DRD2 (D2 long receptor) [4]; Log[Drug] -6.52
  Response, Fig_S11b dose-response: 80.2434 and 83.1695 and 87.1255 and 85.3392 and 85.0097 and 83.4496 and 88.4512 and 85.5769 and 83.1472
DRD2 (D2 long receptor) [4]; Log[Drug] -7
  Response, Fig_S11b dose-response: 58.0056 and 50.7491 and 42.2987 and 73.1202 and 72.0543 and 69.6996 and 76.9851 and 77.9363 and 79.6216
DRD2 (D2 long receptor) [4]; Log[Drug] -7.52
  Response, Fig_S11b dose-response: 45.2247 and 26.7088 and 25.0468 and 53.9826 and 53.3236 and 57.1802 and 56.5964 and 48.0046 and 46.7638
DRD2 (D2 long receptor) [4]; Log[Drug] -8
  Response, Fig_S11b dose-response: 27.6217 and 13.9045 and 1.873 and 27.4516 and 30.7752 and 36.8798 and 38.172 and 42.1216 and 42.4628
DRD2 (D2 long receptor) [4]; Log[Drug] -8.52
  Response, Fig_S11b dose-response: 12.8745 and -2.8324 and -17.6966 and 25 and 13.7985 and 29.6899 and 21.5778 and 11.2386 and 28.598
DRD2 (D2 long receptor) [4]; Log[Drug] -9
  Response, Fig_S11b dose-response: 19.5459 and 15.9176 and 4.8221 and 21.5698 and 25.5426 and 29.7481 and 11.342 and 13.0583 and 27.4194
DRD2 (D2 long receptor) [4]; Log[Drug] -11
  Response, Fig_S11b dose-response: 6.507 and 4.611
DRD2 (D2 long receptor) [4]; Log[Drug] -11.52
  Response, Fig_S11b dose-response: 28.839 and 31.7182 and 13.2022 and 1.376 and -1.3857 and 16.4244 and 10.2357 and 2.895 and 29.146
DRD2 (D2 long receptor) [4]; Log[Drug] -12
  Response, Fig_S11b dose-response: 23.5955 and 3.886 and -4.2135 and -2.9264 and -5.2713 and 2.829 and 6.638 and 20.6162
DRD4 (D4.4 variant) [5]
  EC50: > 10 µM
DRD2 (D2 long receptor) [6]
  Emax relative to quinpirole response: 83.11%
  EC50: 0.557 ± 0.129 µM
DRD2 (D2 long receptor) [6]; Fig_S11c, Log[Drug] -5, replicate values
  response, Fig_S11c dose-response source data: 102.612 and 76.914 and 118.815 and 128.686 and 107.344 and 93.7459 and 91.4018 and 94.1354
DRD2 (D2 long receptor) [6]; Log[Drug] -6.52
  Response, Fig_S11c dose-response: 31.2199 and 46.2944 and 28.6852
DRD2 (D2 long receptor) [6]; Log[Drug] -7
  Response, Fig_S11c dose-response: 11.3874 and 10.0089 and 10.6537 and 8.17 and 16.7384 and 23.3506 and 16.3825 and 16.4206 and 21.2486
DRD2 (D2 long receptor) [6]; Log[Drug] -7.52
  Response, Fig_S11c dose-response: 2.983 and 1.764 and 4.002 and -3.309 and -7.696 and -0.6325 and 11.3698 and 6.994 and 12.6997
DRD2 (D2 long receptor) [6]; Log[Drug] -8
  Response, Fig_S11c dose-response: 3.216 and 0.7671 and -0.1186 and 4.58 and -7.813 and 8.0383 and 4.755 and 0.516 and 2.286
DRD2 (D2 long receptor) [6]; Log[Drug] -8.52
  Response, Fig_S11c dose-response: 2.679 and 1.071 and -1.473 and 0.4627 and -3.045 and 4.511 and 0.1556 and -1.011
DRD2 (D2 long receptor) [6]; Log[Drug] -9
  Response, Fig_S11c dose-response: 0.7411 and 0.1816 and 1.971 and -2.53 and -2.659 and 6.978 and 2.24 and -0.7813 and 0.4791
DRD2 (D2 long receptor) [6]; Log[Drug] -9.52
  Response, Fig_S11c dose-response: 1.675 and 0.3261 and 1.23 and 1.988 and 0.5154 and 6.132 and 2.922 and -0.3739 and -1.362
DRD2 (D2 long receptor) [6]; Log[Drug] -10
  Response, Fig_S11c dose-response: 0.7745 and 3.454 and 0.4706 and -6.955 and -3.6985 and -1.1362 and 1.072 and 0.3907 and -1.333
DRD2 (D2 long receptor) [6]; Log[Drug] -10.52
  Response, Fig_S11c dose-response: 0.1927 and 0.4854 and 0.3409 and -1.124 and 8.703 and 5.11 and 0.478 and 0.806 and 3.44
DRD2 (D2 long receptor) [6]; Log[Drug] -11
  Response, Fig_S11c dose-response: 0.4891 and -0.1075 and 0.05188 and -6.3018 and 5.0836 and -3.93 and -2.3709 and 4.648 and -1.497
DRD2 (D2 long receptor) [6]; Log[Drug] -11.52
  Response, Fig_S11c dose-response: 2.264 and 2.713 and 0.6374 and -3.324 and 3.804 and -6.217 and 0.5754 and 2.325 and 0.9369
DRD2 (D2 long receptor) [6]; Log[Drug] -12
  Response, Fig_S11c dose-response: 0.04817 and -0.3928 and 5.406 and 4.214 and -4.302 and -2.66 and 3.553 and -0.8933
DRD3
  EC50: > 10 µM
DRD4 (D4.4 variant) [7]
  EC50: > 10 µM
DRD2 F1103.28A [8]
  pKi ± SEM: 6.53±0.31
  Ki: 0.3 µM
